Read-outs that look alike come from different tables or passages of the source.
Columns and labels:
[1] = source not stated, cited from earlier work
[2] = Distribution coefficient (logD), octanol/water; assay type: physicochemical; conditions: two-phase system, pH 7.4; from logD
Procedure: (§1) Statistical analyses were performed using SPSS, version 23.0 (IBM SPSS Statistics for Windows, Armonk, NY, USA). Participants treated with the same substance before and after surgery, with one or more trough sample concentrations available, were included in the analysis. To allow interindividual and intraindividual comparisons, serum concentrations were adjusted for defined daily dose (DDD). For example, since DDD for citalopram is 20 mg, a DDD-adjusted citalopram concentration of 100 nmol/L could represent a measured concentration of 50, 100, or 200 nmol/L, given a daily dose of 10, 20, or 40 mg, respectively. To compare pre- to post-surgery concentrations, as well as pre- to post-diet concentrations, we used Wilcoxon signed rank test for substances with samples available for six or more individuals. We used Spearman’s correlation to explore the relationship between the ratio of the post-/pre-diet concentrations and (i) the distribution coefficient for the drug in question, i.e., the logarithm of the ratio of its concentration in a lipophilic and a hydrophilic solution (logD), as well as (ii) the weight loss in kilograms for pregabalin.

[3] = Dose-adjusted steady-state trough serum concentrations before and after low-calorie diet and bariatric surgery; assay type: in vivo, human
From the text: We designed the study as a naturalistic longitudinal, prospective case series with intra-individual comparisons of drug concentrations over time, before and up to 1 year after the surgical procedure.
The participants contributed blood samples to the current study during routine pre-surgery visits before, and post-surgery visits about 8 weeks, 6 months, and 1 year after, the surgery. Pre-surgery sampling generally occurred twice: at an initial preoperative assessment visit, and just before surgery. Between these visits, that is, before surgery, patients were required to adhere to a low-calorie diet and show a weight reduction. The samples were stored as serum in −80 °C at a biobank, and analysed after all samples had been collected.
Before every routine visit at which the sampling was to occur, we contacted the participants by telephone to systematically obtain information on the current dose as well as adherence to the drug treatment in question over the 2 preceding weeks. Samples were excluded from the data set if non-adherence less than four elimination half-lives prior to sampling was reported; exceptions were made for occasional missed doses of fluoxetine. Half-lives applied were those described for a drug or its metabolite in the summary of product characteristics. We also asked for and recorded concomitant drug treatment, weight, and smoking status. To be able to relate potential changes in concentration to health consequences, we asked the participants during the follow-up phone calls, using an open question, if anything had happened to their health since the last visit. To obtain trough blood concentrations, we strived to schedule the routine visits before lunchtime and the participants were instructed not to take morning tablets before the sampling.
Specific substances were analysed concomitantly, using clinical routine methods, at accredited laboratories at the Department of Clinical Chemistry, Sahlgrenska University Hospital, Gothenburg, Sweden, or (as for gabapentin, hydroxybupropion, mianserine, pregabalin, paroxetine and topiramate) at the Department of Clinical Pharmacology, St. Olav’s Hospital, Trondheim, Norway. Analysis methods were based on liquid chromatography/tandem mass spectrometry or (for lamotrigine and valproic acid) enzyme immunoassay.
as §1

[4] = historical data or matched non-surgery subjects as controls; cited from earlier work

| Structure (SMILES) | logD ([1]; octanol/water, pH 7.4) | Abundance in octanol relative to water [2] | Dose-adjusted drug concentration Median (IQR), Pre-diet/pre-surgery ([3]; human, in vivo) | Dose-adjusted drug concentration Median (IQR), post-diet ([3]; human, in vivo) | Dose-adjusted drug concentration Median (IQR), pre-diet ([3]; human, in vivo) | Dose-adjusted drug concentration Median (IQR), Post-surgery ([3]; human, in vivo, 379 days after surgery (median), trough) | Abundance in water relative to octanol [2] | Dose-adjusted drug concentration Median (IQR), Pre-diet/pre-surgery ([3]; Table 2A, antiepileptics, trough serum, adjusted for dose in DDDs) | Dose-adjusted drug concentration Median (IQR), post-diet ([3]; Table 2B, antiepileptics, trough serum, adjusted for dose in DDDs, after pre-surgery low-calorie diet) | Dose-adjusted drug concentration Median (IQR), pre-diet ([3]; Table 2B, antiepileptics, trough serum, adjusted for dose in DDDs, before low-calorie diet) | Change in dose-adjusted concentration over the pre-surgery low-calorie diet ([3]; after the pre-surgery diet, before surgery, median weight reduction 6 kg) | concentration at 379 days after surgery (median), trough ([3]; human, in vivo, Table 2A, antiepileptics, trough serum, adjusted for dose in DDDs, last observation carried forward, median 379 days after surgery, read-out: Dose-adjusted drug concentration Median (IQR), Post-surgery) | Concentration change after the bariatric surgery procedure [4] | logD ([1]; selection limit for extremely hydrophilic or extremely lipophilic substances in literature search) |
| --- | --- | --- | --- | --- | --- | --- | --- | --- | --- | --- | --- | --- | --- | --- |
| CN1CCN2c3ccccc3Cc3ccccc3C2C1 (stereo not drawn) [Mianserine] | 3.14 | more than 1 000 fold | 255 (N/A) nmol/L | 201 (N/A) nmol/L | 255 (N/A) nmol/L | 183 (N/A) nmol/L |  |  |  |  |  |  |  |  |
| CC(C)C[C@H](CN)CC(=O)O [Pregabalin] | −1.35 |  |  |  |  |  | > 20 fold | 8.5 (5.8–16) µmol/L | 25 (8–33) µmol/L | 9.5 (7–21) µmol/L | increased | 13 µM |  |  |
| C=CC[C@@H]1/C=C(\C)C[C@H](C)C[C@H](OC)[C@H]2O[C@@](O)(C(=O)C(=O)N3CCCC[C@H]3C(=O)O[C@H](/C(C)=C/[C@@H]3CC[C@@H](O)[C@H](OC)C3)[C@H](C)[C@@H](O)CC1=O)[C@H](C)C[C@@H]2OC [tacrolimus] |  |  |  |  |  |  |  |  |  |  |  |  | appeared to decrease | > 4 |

— publication PMC8585833, “Serum concentrations of antidepressants, antipsychotics, and antiepileptics over the bariatric surgery procedure” (European Journal of Clinical Pharmacology, 2021)
